Data reported in paper PMC5884652, “New antimicrobial peptide kills drug-resistant pathogens without detectable resistance” (Oncotarget, 2018).
Ends that are not written are not given here.

Experiments:
hRBCs = assay type: cell-based, human; details: 400 μM peptide, PBS buffer containing 8% hRBCs, 1 h, 37° C, microscope
Protocol: (§1) www.oncotarget.com Oncotarget, Supplementary Materials
(§2) New antimicrobial peptide kills drug-resistant pathogens without […]
(§3) Supplementary Figure 1: The hemolytic activities of peptides were tested using hRBCs, and cytotoxicity was tested using a human keratinocyte line (HaCaT cells). The cells were treated with 400 μM peptide in PBS buffer containing 8% hRBCs (v/v). The samples were then incubated with mild agitation for 1 h at 37° C, and then spun down at 800 × g for 10 min. Changes in hRBC morphology were examined under a microscope. Cells were treated with 400 μM rhodamine-labeled peptides. HaCaT cells were seeded at 4 × 10^3 cells/well and then incubated for 24 h, treated with rhodamine-labeled peptide and incubated for an additional 24 h at 37° C in a humidified chamber under an atmosphere containing 5% CO2. The cells were examined under an inverted fluorescence phase contrast microscope. Scale bar, 100 μm.
(§4) (1 picture or pasted object on this page, not shown here)

HaCaT cells = assay type: cell-based, human; details: 400 μM rhodamine-labeled peptide, 24 h, 37° C, fluorescence microscope
Protocol: as §1, §2, §3, §4

E. coli = assay: Membrane depolarization (DiSC3-5); assay type: cell-based; details: ex 622 nm, em 670 nm
Protocol: The membrane depolarizing activities of the peptides were evaluated in E. coli cells using the membrane potential-sensitive fluorescent dye DiSC3-5 (3,3′-dipropylthiadicarbocyanine iodide). Two batches of bacterial cells (experiment and control) were grown to mid-log phase at 37° C, harvested, and washed three times with buffer A (20 mM glucose, 5 mM HEPES [pH 7.2]). The cells were then resuspended to an A600 of 0.05 in buffer A containing 0.1 M KCl, after which DiSC3-5 was added to a final concentration of […] and the mixture was incubated for 60 min until the fluorescence level stabilized. The peptides were then added to bacterial suspensions, and the changes in fluorescence were continuously recorded (excitation at 622 nm and emission at 670 nm) for 30 min [36].

For FLRFIGSVKHGKGHLVHHIGVAL-NH2 [CSP-4], the “Membrane damage of hRBCs” value (hRBCs) was “no detectable hemolytic or membrane-binding activity”, the “Binding to the cell membrane of HaCaT cells” value (HaCaT cells) was “no detectable hemolytic or membrane-binding activity” and the “Membrane depolarization (DisC3–5 fluorescence)” value (E. coli) was “dose-dependent disruption and resultant depolarization”.
